Experiment [1] has as its system mouse model of ischemic stroke. In words: Neurological function tests after tMCAO. The format is in vivo. As to conditions: 5.0 mg/kg. The protocol: The scores were: 0, no observable deficit; 1, forelimb flexion; 2, forelimb flexion and decreased resistance to lateral push; 3, forelimb flexion, decreased resistance to lateral push, and unilateral circling; 4, forelimb flexion and partial or complete lack of ambulation.
In brief, the corner test apparatus consists of two cardboards (30×20×1 cm each) placed together at a 30° angle to form a narrow alley. The mouse was placed between the two angled boards facing the corner. When exiting the corner, uninjured mice turned left or right randomly. […] The numbers of left and right turns of each mouse during 10 trials were recorded, and turning movements that were not part of a rearing movement were not scored. Preoperative training was carried twice per day for three days prior to operation. Postoperatively, animals were tested on day 1, 3, 5, and 7.
In brief, two small pieces of adhesive tape (4 mm×3 mm) were attached to the forepaws in an alternating sequence and with equal pressure by the experimenter before each trial. Animals were released into a testing cage, and the time of contact and removal of the adhesive patch were recorded. Contact was recorded when either shaking of the paw or mouth contact occurred. The trial ended after the adhesive patch was removed or after 2 min had elapsed. Preoperative training was carried twice per day for three days prior to operation. Postoperatively, animals were tested on day 1, 3, 5, and 7.
Referring to FIG. 13, neurological deficit scores, corner tests, and adhesive tape contact and adhesive tape removal tests of mice treated with vehicle or ZT-1a 1 day before tMCAO (˜1) and at days 0, 1, 3, 5, and 7 post-tMCAO are shown. Vehicle (DMSO, 2 ml/kg) or ZT-1a (5.0 mg/kg) were administered as described in B. Data are means±SEM, n=6 for each group (male 3, female 3). * p<0.05 vs. vehicle.

The next experiment addresses T1, SPAK-WNK1 interaction (Homo sapiens, UniProt Q9UEW8).
T1 construct: Non-transfected HEK293 cell lysates; endogenous in cells; host or cells: HEK293 (non-transfected) lysate
In words: Co-immunoprecipitation of WNK1 with SPAK from HEK293 cell lysates. The format is binding. As to conditions: 30 min on ice. From the text:
Referring to FIG. 6, evidence that SPAK associates with WNK1, and interaction is disrupted by SPAK CCT mutation is shown. […] Immunoprecipitates were subjected to immunoblot probed with antibody to total WNK1 and antibody to total SPAK.

In another experiment the target is T2, GST-[T233E]SPAK kinase (Homo sapiens, UniProt Q9UEW8, T231E).
T2 construct: made in house; host or cells: E. coli
In words: SPAK kinase assay employing CATCHtide. The format is biochemical. The method, then:
SPAK kinase assays employing CATCHtide (cation chloride co-transporter peptide substrate). Peptide kinase assays, performed in triplicate, were set up in a total volume of 50 μl containing 0.5 μg GST-[T233E]SPAK kinase (˜5 nM at ˜10% purity) in 50 mM Tris/HCl, pH 7.5, 0.1 mM EGTA, 10 mM MgCl2, 300 μM CATCHtide ([…]; SEQ ID NO:1), […] [γ-32P]ATP (˜500 cpm/pmol) and the indicated concentrations of inhibitor dissolved in DMSO. After incubation for 30 min at 30° C., reactions were terminated by spotting 40 μl of the reaction mix onto P81 phosphocellulose paper and immersion in 50 mM phosphoric acid. The papers were washed extensively and the incorporation of [γ-^32P]ATP into CATCHtide was quantified by Cerenkov counting. IC^50 values were calculated with GraphPad Prism using non-linear regression analysis.
Referring to FIG. 7A, the activation of SPAK kinase by MO25α is shown. SPAK was assayed in the absence or presence of five-fold molar excess of wild-type MO25α.
Referring to FIG. 7B, kinetic data was determined for ZT-1a in the absence or presence of five-fold molar excess of wild-type MO25α. Data points are the average of three determinations, and the error bars are +/−SEM.

For `Cc1cc(C(C#N)c2ccc(Cl)cc2)c(Cl)cc1NC(=O)c1cc(Cl)ccc1O` (centres unmarked) [ZT-1a, 5-chloro-N-(5-chloro-4-((4-chlorophenyl)(cyano)methyl)-2-methylphenyl)-2-hydroxy-benzamide], in experiment [1] (days 1-7 post-stroke), the corner test result was “reduced unidirectional turn preference and absence of asymmetries by day 7 post-stroke”. In addition, in experiment [1] (vs vehicle, p<0.05), the adhesive removal test entry is listed as “significantly improved motor function”. Also, in experiment [1] (vs vehicle, p=0.10), the adhesive contact test result is reported as “trend to faster contact response”. For the same molecule, the “co-immunoprecipitation of WNK1 with SPAK” value at SPAK-WNK1 interaction is given as “potently abolished”. Further, the “change of IC50 values by addition of MO25α” value on GST-[T233E]SPAK kinase was “not significantly altered”. Further, on GST-[T233E]SPAK kinase (SPAK activity at different ATP concentrations), the “change of IC50 values with increasing ATP concentrations” value is “unchanged”. Moreover, the IC50 (in general, the concentration that gives 50% inhibition) on GST-[T233E]SPAK kinase (absence of wild-type MO25α) came out at 40.5 µM; on GST-[T233E]SPAK kinase (presence of five-fold molar excess of wild-type MO25α), 41.3 µM.
